Experimental data reported in patent US9526742B2, “Use of epigenome-modifying compounds for the treatment of genetic muscular diseases linked to a protein-conformational disorder” (GENETHON, priority 2012, dated 2016).

Tested on: R77C mutated α-sarcoglycan
Assay: Immunofluorescence marking of α-sarcoglycan at the membrane of non-permeabilized quadri-transfected HER 911 cells
Type: cell-based, human
Conditions: 24 h treatment; for membrane localization of the R77C-mutated α-sarcoglycan protein: HER 911 cells quadri-transfected with α(R77C)-, β-, γ-, δ-sarcoglycan; for membrane addressing of the sarcoglycan complex: quadritransfected HER 911 cells
Method: HER-911 (“Human Embryonic Retinoblast”) cells have been inoculated in vials and cultivated up to a 80% confluence in Dulbecco's modified Eagle's+GlutaMAX (Gibco, Invitrogen) medium containing 10% of fetal calf serum, 0.01 mg/ml of gentamicin, and 1% MEM Non Essential Amino Acids (Gibco, Invitrogen). The cells have been maintained in a humidified atmosphere with 5% C02, at 37° C.
The HER-91 cells have been transfected by means of 12 μl of Fugene.6 Transfection Reagent (Roche) for 2 μg of plasmid (0.5 μg of each of the 4 sarcoglycan (SG) constructions for HER-911 cells). The plasmids expressing the SG, pcDNA3.V5-his_hα-SG, pcDNA3.V5-his_hβ-SG, pcDNA3.V5-his_hγ-SG, and pcDNA3.V5-his_hδ1-SG (transcriptional type-1 variant), are plasmids where the expression of the coding sequence of the respective sarcoglycans is under control of the CMV promoter.
After 48 h, the cells have been treated for 24 h with 5 μM of 5-aza-2′-deoxycytidine or 1 μM of SAHA (Suberoylanilide hydroxamnic acid).
The HER-911 cells have been fixed by incubation with 3.7% of formaldehyde for 15 min at room temperature. If necessary, a permeabilization has been performed by using 0.2% Triton X-100 for 20 min. After having been saturated with 20% fetal calf serum for 30 min, the cells have been incubated with primary antibodies at adapted dilutions (in PBS) for 1 h at room temperature. A monoclonal murine antibody specific for α-SG (NCL-A-SARC) is available from Novocastra. The cells have been washed 3 times with PBS and then incubated for 1 h with secondary antibodies diluted by 1/1,000 in PBS. Finally, the cells have been washed in PBS, mounted by using a Vectashield Mounting Medium with DAPI (Vector, H-1200), and then examined with a confocal immunofluorescence microscope (Leica).
HER 911 human cells have been quadri-transfected with plasmids coding β-, γ-, and δ-sarcoglycans and a plasmid coding either non-mutated α-sarcoglycan (FIG. 1A and FIG. 2A), or R77C mutated α-sarcoglycan (FIGS. 1B and 1C; FIGS. 2B and 2C).
An immunomarking has then been performed on the non-permeabilized cells by using an antibody directed against the extracellular portion of the α-sarcoglycan, which enables to visualize the protein only at the cellular membrane level and thus to compare the addressing of the mutated protein with that of the normal protein.

Row | SMILES | membrane localization of the R77C-mutated α-sarcoglycan protein (5 μM, FIG. 1C) | membrane addressing of the sarcoglycan complex (5 μM) | membrane localization of the R77C-mutated α-sarcoglycan protein (1 μM, FIG. 2C) | membrane addressing of the sarcoglycan complex (1 μM)
1 | Nc1ncn([C@@H]2O[C@H](CO)[C@@H](O)[C@H]2O)c(=O)n1 [5-azacytidine] | restores the membrane localization of the R77C-mutated protein | enabled to reconstitute the complex at the membrane | – | –
2 | O=C(CCCCCCC(=O)Nc1ccccc1)NO [SAHA, suberoylanilide hydroxamic acid] | – | – | restores the membrane localization of the R77C-mutated protein | enabled to reconstitute the complex at the membrane
